Converted amounts (≈) assume the structure as drawn. “Also recorded” adds a separate entry of the source. Like-named read-outs stand apart in the source and are kept apart here.
Columns and labels:
[1] = tested on: MRSA N315 IR94 HR-1; test: MIC, agar plate dilution method; type: cell-based, methicillin-resistant Staphylococcus aureus; details: Staphylococcus aureus, 20 h
Procedure: (§1) Assay of minimum inhibitory concentration (MIC) was performed according to the agar plate dilution method (Method of Japan Society of Chemotherapy, CHEMOTHERAPY 29, 76-79, 1981).
(§2) Test organisms used were 27 types of microorganisms including clinical isolates of methicillin-resistant Staphylococcus aureus. Each test organism was cultured in Mueller-Hinton broth (2.1% w/v) (DIFCO) at 37° C. for 20 hours, and the cultured cells were suspended to about 10^6 cell counts/ml in the same medium, then was used as the microbial suspension for inoculation. The prepared microbial suspension was smeared by using the microplanter on MHA medium (Mueller-Hinton broth 2.1% (w/v) and agar 1.5%) containing K04-0144A substance, K04-0144B substance or K04-0144C substance, each of which was subjected to two-fold stepwise dilution from 128 μg/ml. After culturing at 37° C. for 20 hours, MIC was determined by macroscopically confirming the growth of microorganisms. Vancomycin, arbekacin and linezolid were used as a comparative control.

[2] = tested on: MRSA 70; test: MIC, agar plate dilution method; type: cell-based, methicillin-resistant Staphylococcus aureus; details: Staphylococcus aureus
Procedure: as §1, §2

[3] = tested on: MRSA 92-1191; test: MIC, agar plate dilution method; type: cell-based, methicillin-resistant Staphylococcus aureus; details: Staphylococcus aureus
Procedure: as §1, §2

[4] = tested on: silkworms; test: Toxicity against silkworms (substance only, no infection); type: in vivo, silkworm; details: 25 mg/kg, uninfected silkworms, 72 hours
[5] = Solubility in solvent; type: physicochemical; details: listed as K04-0144A substance
[6] = tested on: clinical isolate of MRSA (K24 strain); test: MRSA infectious model using silkworms; type: in vivo, silkworm; details: 72 hours after the inoculation
Procedure: As an alternative method for in vivo MRSA infection model using animals, the infection system using silkworms has been reported (Kaito et al, Microbial Pathogenesis, 32: 183-190, 2002). Effect of K04-0144A substance was measured according to this method.
Test organism used was the clinical isolate of MRSA (K24 strain). The MRSA was cultured statically using LB-10 medium (DIFCO) at 37° C. for 18 hours, and a 50 μl of the cultured strain was inoculated into the hemolymph of silkworm, 5 instar, 2nd day, (about 2 g, Ehime sansyu eggs Co., Japan). K04-0144A substance was prepared to a solution of 1 mg/ml, and 50 μl of the solution were administered by using syringe to the dorsal vessel of 5 silkworms infected with MRSA (25 mg/kg). Effect of the K04-0144A substance was evaluated by comparing the survival rate between a group with administering the sample and a group without administering the sample during the raising period of 72 hours after the inoculation. […] Further, all silkworms administered with 50 μl of MRSA bacterial suspension died within 72 hours after the inoculation.

[7] = tested on: P. aeruginosa E-2; test: MIC, agar plate dilution method; type: cell-based; details: Pseudomonas aeruginosa
Procedure: as §1, §2

[8] = tested on: P. mirabilis IFO3849; test: MIC, agar plate dilution method; type: cell-based; details: Proteus mirabilis
Procedure: as §1, §2

[9] = tested on: S. aureus FDA209P; test: MIC, agar plate dilution method; type: cell-based; details: Staphylococcus aureus
Procedure: as §1, §2

[10] = tested on: M. luteus ATCC9341; test: MIC, agar plate dilution method; type: cell-based; details: Micrococcus luteus
Procedure: as §1, §2

[11] = tested on: S. epidermidis IFO12648; test: MIC, agar plate dilution method; type: cell-based; details: Staphylococcus epidermidis
Procedure: as §1, §2

[12] = tested on: P. vulgaris OX-19; test: MIC, agar plate dilution method; type: cell-based; details: Proteus vulgaris
Procedure: as §1, §2

[13] = tested on: S. aureus ISP217; test: MIC, agar plate dilution method; type: cell-based; details: Staphylococcus aureus
Procedure: as §1, §2

[14] = tested on: E. faecium NTCT12203(VanA); test: MIC, agar plate dilution method; type: cell-based; details: Enterococcus faecium
Procedure: as §1, §2

[15] = tested on: S. aureus ISP447; test: MIC, agar plate dilution method; type: cell-based; details: Staphylococcus aureus
Procedure: as §1, §2

[16] = tested on: E. faecalis ATCC21212; test: MIC, agar plate dilution method; type: cell-based; details: Enterococcus faecalis
Procedure: as §1, §2

[17] = tested on: E. coli NIHJ JC-2; test: MIC, agar plate dilution method; type: cell-based; details: Escherichia coli
Procedure: as §1, §2

[18] = tested on: A. calcoaceticus IFO2552; test: MIC, agar plate dilution method; type: cell-based; details: Acinetobacter calcoaceticus
Procedure: as §1, §2

[19] = tested on: E. facecalis NTCT12201(VanA); test: MIC, agar plate dilution method; type: cell-based
Procedure: as §1, §2

[20] = tested on: C. freundii ATCC8090; test: MIC, agar plate dilution method; type: cell-based; details: Citrobacter freundii
Procedure: as §1, §2

[21] = tested on: M. morganii IID Kono; test: MIC, agar plate dilution method; type: cell-based; details: Morganella morganii
Procedure: as §1, §2

[22] = tested on: S. aureus Smith; test: MIC, agar plate dilution method; type: cell-based; details: Staphylococcus aureus
Procedure: as §1, §2

[23] = tested on: K. pneumoniae NCTN9632; test: MIC, agar plate dilution method; type: cell-based; details: Klebsiella pneumoniae
Procedure: as §1, §2

[24] = tested on: P. aeruginosa 46001; test: MIC, agar plate dilution method; type: cell-based
Procedure: as §1, §2

[25] = tested on: S. marcescens IFO12648; test: MIC, agar plate dilution method; type: cell-based; details: Serratia marcescens
Procedure: as §1, §2

[26] = tested on: E. aerogenes NCTC10006; test: MIC, agar plate dilution method; type: cell-based; details: Klebsiella aerogenes
Procedure: as §1, §2

[27] = tested on: S. aureus 8325(pEP2104); test: MIC, agar plate dilution method; type: cell-based; details: Staphylococcus aureus, 20 h
Procedure: as §1, §2

[28] = tested on: E. cloacae IFO13535; test: MIC, agar plate dilution method; type: cell-based; details: Enterobacter cloacae
Procedure: as §1, §2

[29] = tested on: S. aureus 8325(pMS97); test: MIC, agar plate dilution method; type: cell-based; details: Staphylococcus aureus, 20 h
Procedure: as §1, §2

[30] = tested on: MRSA N315 IR94; test: MIC, agar plate dilution method; type: cell-based, methicillin-resistant Staphylococcus aureus; details: Staphylococcus aureus, 20 h
Procedure: as §1, §2

[31] = tested on: MRSA (Clinical isolate, the Kitasato Hospital, Japan); test: Enhancing action of K04-0144D substance on antibiotic activities, broth microdilution method; type: cell-based, methicillin-resistant Staphylococcus aureus

Compound: C=C(C/C=C(\C)CCC=C(C)C)CCC(C)(C)/C=C/CC/C(C)=C\COC(COP(=O)(O)OC1OC(C(N)=O)C(C)(O)C(OC(N)=O)C1OC1OC(COC2OC(CO)C(O)C(O)C2O)C(OC2OC(C)C(OC3OC(C(=O)O)C(O)C(O)C3O)C(O)C2NC(C)=O)C(O)C1NC(C)=O)C(=O)O (stereo not drawn) [K04-0144A]
- MIC [1]: 0.125 µg/mL (≈ 0.084 µM)
- MIC ([2]; MRSA 70, 37° C., 20 hours, read-out: MIC): 0.06 µg/mL (≈ 0.0403 µM)
- MIC ([3]; MRSA 92-1191, 37° C., 20 hours, read-out: MIC): 0.25 µg/mL (≈ 0.168 µM)
- toxicity against silkworms (survival, substance only) [4]: no toxicity against silkworms
- Solubility in solvent [5]: Soluble in methanol and water DMSO; also recorded: Insoluble in acetone, chloroform and hexane
- survival of silkworms infected with MRSA ([6]; 25 mg/kg into dorsal vessel, untreated infected silkworms all died within 72 hours): all survived after 72 hours of the inoculation
- MIC ([7]; E2, P. aeruginosa E-2, 37° C., 20 hours, read-out: MIC): > 16 µg/mL
- MIC ([8]; P. mirabilis IFO3849, 37° C., 20 hours, read-out: MIC): > 16 µg/mL
- MIC ([9]; S. aureus FDA209P, 37° C., 20 hours, read-out: MIC): 1 µg/mL (≈ 0.672 µM)
- MIC ([10]; M. luteus ATCC9341, 37° C., 20 hours, read-out: MIC): > 16 µg/mL
- MIC ([11]; S. epidermidis IFO12648, 37° C., 20 hours, read-out: MIC): 4 µg/mL (≈ 2.69 µM)
- MIC ([12]; OX19, P. vulgaris OX-19, 37° C., 20 hours, read-out: MIC): > 16 µg/mL
- MIC ([13]; S. aureus ISP217, 37° C., 20 hours, read-out: MIC): 0.25 µg/mL (≈ 0.168 µM)
- MIC ([14]; E. faecium NTCT12203(VanA), 37° C., 20 hours, read-out: MIC): > 16 µg/mL
- MIC ([15]; S. aureus ISP447, 37° C., 20 hours, read-out: MIC): 0.25 µg/mL (≈ 0.168 µM)
- MIC ([16]; E. faecalis ATCC21212, 37° C., 20 hours, read-out: MIC): 1 µg/mL (≈ 0.672 µM)
- MIC ([17]; NIHJJC2, E. coli NIHJ JC-2, 37° C., 20 hours, read-out: MIC): > 16 µg/mL
- MIC ([18]; A. calcoaceticus IFO2552, 37° C., 20 hours, read-out: MIC): 16 µg/mL (≈ 10.8 µM)
- MIC ([19]; E. facecalis NTCT12201(VanA), 37° C., 20 hours, read-out: MIC): 1 µg/mL (≈ 0.672 µM)
- MIC ([20]; C. freundii ATCC8090, 37° C., 20 hours, read-out: MIC): > 16 µg/mL
- MIC ([21]; M. morganii IID Kono, 37° C., 20 hours, read-out: MIC): > 16 µg/mL
- MIC ([22]; S. aureus Smith, 37° C., 20 hours, read-out: MIC): 1 µg/mL (≈ 0.672 µM)
- MIC ([23]; K. pneumoniae NCTN9632, 37° C., 20 hours, read-out: MIC): > 16 µg/mL
- MIC ([24]; Pseudomonas aeruginosa, P. aeruginosa 46001, 37° C., 20 hours, read-out: MIC): > 16 µg/mL
- MIC ([25]; S. marcescens IFO12648, 37° C., 20 hours, read-out: MIC): > 16 µg/mL
- MIC ([26]; E. aerogenes NCTC10006, 37° C., 20 hours, read-out: MIC): > 16 µg/mL
- MIC [27]: 0.06 µg/mL (≈ 0.0403 µM)
- MIC ([28]; E. cloacae IFO13535, 37° C., 20 hours, read-out: MIC): > 16 µg/mL
- MIC [29]: 0.5 µg/mL (≈ 0.336 µM)

Compound: CN[C@H](CC(C)C)C(=O)N[C@H]1C(=O)N[C@@H](CC(N)=O)C(=O)N[C@H]2C(=O)N[C@H]3C(=O)N[C@H](C(=O)N[C@H](C(=O)O)c4cc(O)cc(O)c4-c4cc3ccc4O)[C@H](O)c3ccc(c(Cl)c3)Oc3cc2cc(c3O[C@@H]2O[C@H](CO)[C@@H](O)[C@H](O)[C@H]2O[C@H]2C[C@](C)(N)[C@H](O)[C@H](C)O2)Oc2ccc(cc2Cl)[C@H]1O [vancomycin, reference compound]
- MIC [1]: 0.5 µg/mL (≈ 0.345 µM)
- MIC ([2]; MRSA, 20 h): 0.5 µg/mL (≈ 0.345 µM)
- MIC [30]: 0.5 µg/mL (≈ 0.345 µM)
- MIC ([3]; MRSA, 20 h): 1 µg/mL (≈ 0.69 µM)
- survival of silkworms infected with MRSA ([6]; 25 mg/kg): survived after 72 hours of the inoculation
- enhancing action of K04-0144D substance on the antibiotic's activity ([31]; K04-0144D substance 16 μg/ml): no enhancing action
- Ratio (−/+K04-0144D) ([31]; MIC alone / MIC with K04-0144D substance 16 μg/ml): 1
- MIC ([31]; Staphylococcus aureus, MRSA, read-out: Minimum Inhibitory Concentration (−)): 1 µg/mL
- MIC ([7]; E2, 20 h): > 32 µg/mL
- MIC ([8]; IFO3849, 20 h): > 32 µg/mL
- MIC ([9]; FDA209P, 20 h): 1 µg/mL (≈ 0.69 µM)
- MIC ([10]; ATCC9341, 20 h): 1 µg/mL (≈ 0.69 µM)
- MIC ([11]; IFO12648, 20 h): 1 µg/mL (≈ 0.69 µM)
- MIC ([12]; OX19, 20 h): > 32 µg/mL
- MIC ([13]; ISP217, 20 h): 1 µg/mL (≈ 0.69 µM)
- MIC ([14]; 20 h): > 32 µg/mL
- MIC ([15]; ISP447, 20 h): 1 µg/mL (≈ 0.69 µM)
- MIC ([16]; ATCC21212, 20 h): 4 µg/mL (≈ 2.76 µM)
- MIC ([17]; NIHJJC2, 20 h): > 32 µg/mL
- MIC ([18]; IFO2552, 20 h): > 32 µg/mL
- MIC ([19]; 20 h): > 32 µg/mL
- MIC ([20]; ATCC8090, 20 h): > 32 µg/mL
- MIC ([21]; 20 h): > 32 µg/mL
- MIC ([22]; 20 h): 1 µg/mL (≈ 0.69 µM)
- MIC ([23]; NCTN9632, 20 h): > 32 µg/mL
- MIC ([24]; Pseudomonas aeruginosa, 46001, 20 h): > 32 µg/mL
- MIC ([25]; IFO12648, 20 h): > 32 µg/mL
- MIC ([26]; NCTC10006, 20 h): > 32 µg/mL
- MIC [27]: 2 µg/mL (≈ 1.38 µM)
- MIC ([28]; IFO13535, 20 h): > 32 µg/mL
- MIC [29]: 1 µg/mL (≈ 0.69 µM)

From patent US7973147B2, “K04-0144 substance and a process for production thereof” (The Kitasato Institute, priority 2006, dated 2011)
